These results are taken from US20080108574A1, “MELANOCORTIN RECEPTOR MEDIATED MODULATION OF NEUROGENESIS” (BrainCells, Inc., priority 2006, published 2008).

The structures appear in SMILES notation. Some results are limits rather than exact numbers.

In assay [1] the test system is human neural stem cells (hNSCs). On the procedure: In one non-limiting example neurogenesis, a neurogenic response, and neurodifferentiation are all measured in an in vitro assay as follows. […] Mitogen-free test media with a positive control is used for neuronal differentiation, and basal media without growth factors serves as a negative control. Neurogenesis is determined, for example, by measuring the proliferation and/or differentiation of the hNSCs in the presence of varying concentrations of test compound compared to the absence of the test compound (negative control). […] Neurodifferentiation is measured, for example, by detecting neurodifferentiation specific expression markers which methods are known in the art.
(§1) A positive control for neuronal differentiation was used along with basal media without growth factors as a negative control.
as §1

The target of another assay is human mGlu3 (Homo sapiens, UniProt Q14832). The conditions noted are these: in vitro, agonist; read-out: EC50 against human mGlu3 receptors; cited from earlier work.
Chain of human mGlu3 (Q14832 23-879): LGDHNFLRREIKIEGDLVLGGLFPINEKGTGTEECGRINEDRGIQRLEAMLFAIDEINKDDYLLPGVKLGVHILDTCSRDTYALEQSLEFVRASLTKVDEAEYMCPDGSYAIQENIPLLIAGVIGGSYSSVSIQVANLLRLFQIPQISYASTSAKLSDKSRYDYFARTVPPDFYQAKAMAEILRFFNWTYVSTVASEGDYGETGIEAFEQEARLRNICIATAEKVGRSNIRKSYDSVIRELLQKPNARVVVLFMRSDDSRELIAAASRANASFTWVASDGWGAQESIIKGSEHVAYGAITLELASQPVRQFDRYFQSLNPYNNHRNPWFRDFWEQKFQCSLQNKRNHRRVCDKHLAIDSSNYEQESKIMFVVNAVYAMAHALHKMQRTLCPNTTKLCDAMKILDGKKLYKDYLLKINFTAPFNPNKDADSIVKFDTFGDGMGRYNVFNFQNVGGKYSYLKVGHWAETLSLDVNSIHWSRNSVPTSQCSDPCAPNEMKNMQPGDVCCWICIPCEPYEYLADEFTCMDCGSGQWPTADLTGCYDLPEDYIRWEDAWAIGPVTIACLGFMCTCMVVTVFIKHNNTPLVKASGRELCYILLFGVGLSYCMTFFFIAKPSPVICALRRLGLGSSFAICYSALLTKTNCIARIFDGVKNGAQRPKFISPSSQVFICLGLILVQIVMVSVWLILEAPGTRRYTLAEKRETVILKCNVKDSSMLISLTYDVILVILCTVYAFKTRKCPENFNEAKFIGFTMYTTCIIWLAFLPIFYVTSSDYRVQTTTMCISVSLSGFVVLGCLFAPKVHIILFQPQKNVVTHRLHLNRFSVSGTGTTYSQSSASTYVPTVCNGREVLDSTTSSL
The target in a further assay is human mGlu2 (Homo sapiens, UniProt Q14416). As to conditions: in vitro, agonist; read-out: EC50 against human mGlu2 receptors; cited from earlier work.
Chain of human mGlu2 (Q14416 19-872): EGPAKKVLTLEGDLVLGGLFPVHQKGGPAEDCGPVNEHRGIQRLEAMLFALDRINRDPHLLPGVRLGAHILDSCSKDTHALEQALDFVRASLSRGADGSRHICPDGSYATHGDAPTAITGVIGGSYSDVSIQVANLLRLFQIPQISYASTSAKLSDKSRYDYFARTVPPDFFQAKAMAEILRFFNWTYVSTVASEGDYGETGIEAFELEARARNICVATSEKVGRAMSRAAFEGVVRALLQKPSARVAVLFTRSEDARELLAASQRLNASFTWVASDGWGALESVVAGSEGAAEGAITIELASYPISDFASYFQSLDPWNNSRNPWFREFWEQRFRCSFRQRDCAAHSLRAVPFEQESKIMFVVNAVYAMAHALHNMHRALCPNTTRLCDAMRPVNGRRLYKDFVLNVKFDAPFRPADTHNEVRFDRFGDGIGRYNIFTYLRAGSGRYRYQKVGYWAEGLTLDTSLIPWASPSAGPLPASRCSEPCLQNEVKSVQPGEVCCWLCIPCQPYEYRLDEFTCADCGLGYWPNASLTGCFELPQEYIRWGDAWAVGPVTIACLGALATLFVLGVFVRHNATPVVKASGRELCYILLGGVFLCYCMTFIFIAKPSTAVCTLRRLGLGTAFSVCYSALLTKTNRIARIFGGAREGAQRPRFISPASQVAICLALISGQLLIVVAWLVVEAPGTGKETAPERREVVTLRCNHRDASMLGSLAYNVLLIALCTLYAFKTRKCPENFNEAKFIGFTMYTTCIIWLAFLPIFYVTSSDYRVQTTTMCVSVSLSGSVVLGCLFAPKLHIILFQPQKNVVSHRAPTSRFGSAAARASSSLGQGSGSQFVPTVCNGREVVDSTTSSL
Another assay deals with AMPA iGlu receptors. The conditions noted are these: cited from earlier work.
The test system of the next assay is NMDA iGlu receptors. The conditions noted are these: cited from earlier work.
For a further assay, the system named is KA iGlu receptors. The conditions noted are these: cited from earlier work.
In a further assay the test system is Group I receptors. As to conditions: sub-mM concentrations; cited from earlier work.
For a further assay, the target named is mGluR2 (Homo sapiens, UniProt Q14416). As to conditions: read-out: IC50 against mGluR2; cited from earlier work.
Chain of mGluR2 (Q14416 19-872): as above
The test system of a further assay is Group III receptors. The conditions noted are these: sub-mM concentrations; cited from earlier work.
The target of a further assay is mGluR3 (Homo sapiens, UniProt Q14832). As to conditions: read-out: IC50 against mGluR3; cited from earlier work.
Chain of mGluR3 (Q14832 23-879): as the sequence (Q14832 23-879) above

A word on the EC50: it is the concentration at which the effect is half-maximal. In the case of `CCCC[C@H](NC(C)=O)C(=O)N[C@H]1CC(=O)NCCCC[C@@H](C(=O)O)NC(=O)[C@H](Cc2c[nH]c3ccccc23)NC(=O)[C@H](CCCNC(=N)N)NC(=O)[C@@H](Cc2ccccc2)NC(=O)[C@H](Cc2c[nH]cn2)NC1=O` [PT-141, bremelanotide], in assay [1] (hNSCs, dose response, TUJ-1 staining), the “effect on neuronal differentiation” value is reported as “promoted neuronal differentiation”. Also, the EC50 in assay [1] (read-out: EC50, neuronal differentiation, hNSCs, percent of neuronal positive control, basal media values subtracted) is 0.2 µM.
As for `N[C@@]1(C(=O)O)CO[C@H]2[C@H](C(=O)O)[C@H]21` [LY379268, (−)-2-Oxa-4-aminobicyclohexane-4,6-dicarboxylic acid], the 50% effective concentration (EC50) at human mGlu3 and on human mGlu2 was below 0.01 µM in each case.
Take `N[C@](CC1c2ccccc2Oc2ccccc21)(C(=O)O)[C@H]1C[C@@H]1C(=O)O` [LY341495, (2S)-2-amino-2-(1S,2S-2-carboxycycloprop-1-yl)-3-(xanth-9-yl)propanoic acid]: the “activity against AMPA iGlu receptors” value in the assay on AMPA iGlu receptors is “substantially inactive”. In the assay with NMDA iGlu receptors, the “activity against NMDA iGlu receptors” value was “substantially inactive”. Moreover, in the assay with KA iGlu receptors, the “activity against KA iGlu receptors” value is “substantially inactive”.
For the molecule `Clc1ccc2c(c1)N=C(N1CCNCC1)c1ccccc1N2` [N-desmethylclozapine], the neurogenic activity entry in [1] (in assays as disclosed herein) was “highly neurogenic”.
One may read the IC50 as the concentration needed to halve the response being measured. Regarding `NC1(C(=O)O)CCc2cc(P(=O)(O)O)ccc21` (racemic) [APICA, (RS)-1-amino-5-phosphonoindan-1-carboxylic acid], in the assay on Group I receptors, the “activity against Group I receptors” value is “no appreciable activity”. In addition, the IC50 at mGluR2 and on mGluR3 was around 30 µM throughout. Besides, the “activity against Group III receptors” value in the assay on Group III receptors is reported as “no appreciable activity”.
